From paper PMC11674377 (2024)

Columns and labels:
[1] = system: sildenafil aptamer molecular gate (SDF-Aptamer + 3' TGCAAT) (DNA, aptamer) ATTGCAAACCCTCTACCAACAATCGTACTCGTTCGACGTGATGCAAT; assay: TMB release from aptamer-gated silica nanoparticles; settings: 1 µM sildenafil; immobilised aptamer gate; about 63 ± 6.2% of TMB released; control leakage 7.2 ± 4.4%
[2] = system: SDF-Aptamer (DNA, aptamer) ATTGCAAACCCTCTACCAACAATCGTACTCGTTCGACGTGA; assay: fluorescent graphene oxide assay, Langmuir one-ligand fit; settings: K+ 2.7 mM, Na+ 137 mM; PBS (0.01 M phosphate, pH 7.4), 25 °C; aptamer 1 µM; unbound aptamer removed with 4 mg/mL GO; salt form used not stated (b30 mentions citrate)

## CCCc1nn(C)c2c(=O)[nH]c(-c3cc(S(=O)(=O)N4CCN(C)CC4)ccc3OCC)nc12
[1]
  binding: yes
[2]
  KD: 205.3 ± 38.1 nM
